Laboratory results: patent publication US20110104177A1, “HISTONE DEACETYLASE INHIBITORS, COMBINATION THERAPIES AND METHODS OF USE” (THE JOHNS HOPKINS UNIVERSITY, priority 2006, published 2011)

Key:
[1] = system: SFRP1, SFRP2, MLH1, CRBP1, E-cadherin genes in RKO cells; test: RT-PCR re-expression of silenced tumor suppressor genes in RKO cells; type: cell-based, human
Protocol: To inhibit any residual SIRT1 protein, remaining RNAi-expressing cells were treated with 700 μM SPT and control samples were treated with DMSO for 24 hours. […] RKO cells were also treated with 0.5 μM Aza (24 hours), and samples were analyzed as described in FIG. 1A; RT-PCR was performed with intron-spanning primers specific for the two genes. GAPDH was also analyzed as a control. […] Control samples in which no reverse transcriptase was added were analyzed separately, and all were negative for amplification of the indicated genes. […] The level of TSG re-expression induced by Aza treatment or SIRT1 inhibition as described in FIG. 4(A) was compared to levels of expression in HCT116 cells in which the TSGs are basally expressed.
(§1) Cell culture and retroviral infection. MDA-MB-231, MCF7, HCT116, SW480 RKO, and Phoenix cells (ATCC, Rockville, Md., United States) were cultured in Dulbecco's modified Eagle's medium supplemented with 10% fetal bovine serum and 1% penicillin/streptomycin (Invitrogen, Carlsbad, Calif., United States). Retroviral infection was performed using either single or multiple rounds of infection. Briefly, Phoenix cells were transfected with either pBabe, pBabe-SIRT1H363Y, pSUPERretro, pSUPERretro-SIRT1-RNAi-1-3 (NM_012238 positions 410, 589, and 1091; Oligo Engine, Seattle, Wash., United States) using Lipofectamine 2000 (Invitrogen). After 48 h of transfection, the medium containing retrovirus was collected, filtered, and supplemented with Polybrene prior to infection of target cells (MDA-MB-231, MCF7, or HCT116). Infected cells were either harvested 24-48 hours later or subjected to selection with 2-3 μg/ml puromycin for a week prior to harvest and analysis.
(§2) RNA and protein preparation and analysis. Total RNA was extracted (Invitrogen) according to the manufacturer's instructions and subjected to reverse transcription followed by both quantitative real-time and semi-quantitative polymerase chain reaction. For quantitative real-time analyses, the QuantiTect SYBR Green PCR kit (Qiagen, Valencia, Calif., United States) was used and the amplification conditions consisted of an initial 10-minutes denaturation step at 95° C., followed by 40 cycles of denaturation at 95° C. for 15 s and annealing and extension for 30 seconds and 60 seconds, respectively. A BioRad iCycler was used (BioRad, Hercules, Calif., United States), and for quantitation the comparative cycle threshold (Ct) method was used, normalizing the Ct values for the indicated gene to the Ct values of GAPDH relative to a control sample. For conventional PCR, at least two independent sets of intron-spanning primers were used for the analysis of multiple genes, such as CRBP1, (NM_002899), E-cadherin, (L34545), SFRP1, (BC036503), SFRP2, (BC008666), and Gata-4 (L34357). For Western blots, cells stably expressing RNAi constructs were harvested in 50 mM Tris-HCl, 1% NP-40, 0.25% sodium deoxycholate, 150 mM NaCl, 50 mM sodium fluoride, 1 mM dithiothreitol, 1 mM AEBSF, 1× Complete protease inhibitor cocktail (Roche, Basel, Switzerland). Protein concentrations were measured by BCA (Pierce Biotechnology, Rockford, Ill., United States). […] On the same blot, β-actin (Sigma, St. Louis, Mo., United States) was probed to ensure equal loading.
(§3) The results from experiments performed in RKO cells are shown in FIG. 7 which presents RT-PCR results for SFRP1. […] The expression seemed stronger than for 300 μM splitomycin (Spt) or 20 mM nicotinamide (Nia) when these latter two drugs were used alone or in combination, but not as strong as the expression induced by 1 μM of the DNA demethylating agent, deoxy-aza-cytidine (Aza). […] Experiments were carried out as essentially described above.

[2] = system: SFRP1 and 2 genes in human breast cancer cells (line H231); test: Re-activation of SFRP1 and 2 genes in breast cancer cells (line H231); type: cell-based
Protocol: This has been accomplished for the SFRP1 and 2 genes in human breast cancer cells (line H231) and for SFRP1 in human colon cancer cells (line RKO).
as §3

SIRT1 [3] = biological target: T1, SIRT1 (Homo sapiens, UniProt Q96EB6); test: Activity against the SIRT1 enzyme / SIRT1 deacetylase activity; type: biochemical
T1 sequence (Q96EB6 1-747): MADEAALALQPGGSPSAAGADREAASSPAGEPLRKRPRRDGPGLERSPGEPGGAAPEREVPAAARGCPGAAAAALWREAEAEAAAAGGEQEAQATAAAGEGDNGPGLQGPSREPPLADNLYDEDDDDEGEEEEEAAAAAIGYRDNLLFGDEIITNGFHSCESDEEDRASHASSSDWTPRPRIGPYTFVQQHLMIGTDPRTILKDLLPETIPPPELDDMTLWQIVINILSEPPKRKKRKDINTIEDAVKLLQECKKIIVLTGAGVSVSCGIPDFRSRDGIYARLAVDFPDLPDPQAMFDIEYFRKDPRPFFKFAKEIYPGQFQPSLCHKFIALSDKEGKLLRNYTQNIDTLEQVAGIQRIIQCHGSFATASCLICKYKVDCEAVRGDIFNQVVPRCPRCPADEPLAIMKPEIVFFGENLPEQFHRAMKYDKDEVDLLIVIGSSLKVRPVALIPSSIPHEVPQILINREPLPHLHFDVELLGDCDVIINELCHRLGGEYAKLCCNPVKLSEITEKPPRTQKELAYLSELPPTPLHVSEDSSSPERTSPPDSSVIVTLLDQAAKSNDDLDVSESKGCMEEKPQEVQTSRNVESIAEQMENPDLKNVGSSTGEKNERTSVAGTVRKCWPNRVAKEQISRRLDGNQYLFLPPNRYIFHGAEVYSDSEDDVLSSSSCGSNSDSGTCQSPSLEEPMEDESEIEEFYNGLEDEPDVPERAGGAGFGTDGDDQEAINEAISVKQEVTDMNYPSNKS

[4] = system: SFRP1, SFRP2, E-cadherin, CRBP1 genes in MDA-MB-231 cells; test: RT-PCR re-expression of silenced tumor suppressor genes in MDA-MB-231 cells; type: cell-based, human; settings: MDA-MB-231 cells; shRNA retroviral infection; RT-PCR
Protocol: The panels of FIG. 2 are as follows. […] MDA-MB-231 cells were treated with 15 mM NIA or 300 μM SPT for 21 hours, RNA was isolated, and RT-PCR was performed with intron-spanning primers specific for the indicated genes. Control samples in which no reverse transcriptase was added were analyzed separately, and all were negative for amplification of the indicated genes. […] MDA-MB-231 cells were treated with either 50 nM Aza (+), 100 μM SPT (+) or with both Aza and SPT (++), and 34 hours later, RT-PCR was performed for the indicated genes as described in FIG. 2(A). […] MDA-MB-231 cells were treated with either 0, 50, 100, or 120 μM SPT alone for 34 hours, or the treatment was followed by treatment with 300 nM TSA for 3 hours prior to RNA isolation and RT-PCR analysis. […] MDA-MB-231 cells were infected with low titers of virus for shRNA specific for SIRT1. Aza (100 nM) was added 24 hours prior to RNA isolation, and RT-PCR analysis was performed for the genes SFRP 1, SFRP2, and GAPDH as described in FIG. 2(A). […] As shown in the left panel, MDA-MB-231 cells were infected with a control (vec) or mutant SIRT1 virus (HY), and RT-PCR was performed as described in FIG. 2(A). MDA-MB-231 cells were infected with low titers of pBabe or pBabe-SIRT1H363Y retrovirus and subsequently treated with 100 nM Aza for 24 hours or with 300 nM TSA for 3 hours prior to harvest, and RT-PCR was performed.
as §1, §2

[5] = system: SFRP1 and SFRP2 genes in MCF7 cells; test: RT-PCR re-expression of silenced tumor suppressor genes in MCF7 cells; type: cell-based, human; settings: retroviral infection, RT-PCR
Protocol: as §1, §2

[6] = system: SFRP1, SFRP2, GATA4 promoter methylation in MDA-MB-231 cells; test: Promoter DNA methylation by bisulfite sequencing and MSP; type: cell-based, human; settings: MDA-MB-231 cells stably infected
Excerpt: The panels of FIG. 3 are as follows. […] Parallel samples analyzed in FIG. 1D were subjected to bisulfite sequencing of the SFRP1 promoter from MDA-MB-231 cells stably infected with control vector or RNAi-2 or RNAi-3 retrovirus. Open circles indicate unmethylated cytosines, and closed circles indicate methylated cytosines. Numbers at the bottom show the position of cytosines relative to the transcription start site, which is at position 0, and those with a minus sign (−) are upstream from this start site. The region sequenced encompasses the CpG island in which methylation status correlates with gene expression status. […] From left to right: (−) PCR Ctrl indicates H2O only; (−) BS ctrl indicates bisulfite-treated H20; (+) M ctrl indicates the cell line in which SFRP1 is partially methylated and SFRP2 and GATA4 are fully methylated; and (+) U ctrl indicates the Tera-2 cell line in which each gene is unmethylated. All remaining lanes are for MDA-MB-231. From left to right: Aza indicates 1 μM Aza (24 hours) treatment; Ctrl indicates empty vector infection; RNAi-2 indicates shRNA-2 infection alone; RNAi-3 indicates shRNA-3 infection alone; Aza indicates 1 μM Aza (24 hours treatment of control cells; Ctrl indicates empty vector infection+vehicle; RNAi-2 indicates shRNA-2 infection+5 mM NIA treatment; and RNAi-3 indicates shRNA-3 infection+5 mM NIA treatment.
MSP and bisulfite sequencing. […]

SIRT1 [7] = test: Western blot of SIRT1 protein after retroviral shRNA infection; type: cell-based, human
Protocol: as §1, §2

[8] = system: E-cadherin and MLH1 protein in MDA-MB-231 and RKO cells; test: Western blot of tumor suppressor protein re-expression; type: cell-based, human; settings: puromycin selection 3 days
Protocol: The panels in FIG. 1 are as follows. […] Retroviral expression vectors encoding SIRT1 cDNA that produce short hairpin loop RNA targeting either distinct regions of SIRT1 mRNA (RNAi-1, -2, or -3) or a control (ctrl) were used to infect MCF7. Western blot analysis for SIRT1 and β-actin was performed 48 hours after two rounds of infection. […] RNA was isolated from parallel samples analyzed in FIG. 1(A), and RT-PCR was performed with intron-spanning primers specific for the genes SFRP1 and SFRP2. GAPDH was also analyzed as a control. […] Control samples in which no reverse transcriptase was added were analyzed separately, and all were negative for amplification of the indicated genes. […]
RNA and protein preparation and analysis. Total RNA was extracted (Invitrogen) according to the manufacturer's instructions and subjected to reverse transcription followed by both quantitative real-time and semi-quantitative polymerase chain reaction. For quantitative real-time analyses, the QuantiTect SYBR Green PCR kit (Qiagen, Valencia, Calif., United States) was used and the amplification conditions consisted of an initial 10-minutes denaturation step at 95° C., followed by 40 cycles of denaturation at 95° C. for 15 s and annealing and extension for 30 seconds and 60 seconds, respectively. […] Protein concentrations were measured by BCA (Pierce Biotechnology, Rockford, Ill., United States). […]

| inhibition of SIRT1 deactylase activity (SIRT1 [3]) | Compound | SFRP1 expression compared with 1 μM deoxy-aza-cytidine (Aza) ([1]; RKO cells, RT-PCR) | SFRP1 expression compared with 300 μM splitomycin or 20 mM nicotinamide, alone or in combination ([1]; RKO cells, RT-PCR) | SFRP1 RT-PCR specific band ([1]; RKO cells, doses of 20 and 50 μM, 24 or 48 hours) | transcriptional re-activation of SFRP1 and 2 genes [2] | gene re-expression of CRB1 and E-cadherin ([1]; RKO cells stably expressing shRNA, treated with 700 μM SPT 24 hours, RT-PCR) | gene re-expression of SFRP1, SFRP2 and MLH1 ([1]; RKO cells, shRNA retroviral infection, RT-PCR) | gene re-expression of SFRP1, SFRP2 and E-cadherin [4] | gene re-expression of SFRP1 and SFRP2 [5] | SFRP1 promoter methylation profile (bisulfite sequencing) [6] | reduction of SIRT1 protein (knockdown) (SIRT1 [7]; MCF7 cells, Western blot 48 h after two rounds of infection) | reduction of SIRT1 protein (knockdown) (SIRT1 [7]; MDA-MB-231 cells) | reduction of SIRT1 protein (knockdown) (SIRT1 [7]; RKO cells) | protein re-expression (E-cadherin, MLH1) by Western blot [8] |
| --- | --- | --- | --- | --- | --- | --- | --- | --- | --- | --- | --- | --- | --- | --- |
| potent inhibition | NC(=O)C1CCCCc2c1[nH]c1ccc(Cl)cc21 (centres unmarked) [Compound 6, 2-Chloro-5,6,7,8,9,10-hexahydro-cyclohepta[b]indole-6-carboxylic acid amide] | not as strong | stronger | produce the band at both time points | the same effects have been achieved | – | – | – | – | – | – | – | – | – |
| – | RNAi-3: shRNA targeting SIRT1 mRNA, sequence CATAGACACGCTGGAACAG, NM_012238 position 1091 | – | – | – | – | leads to gene re-expression | leads to gene re-expression of SFRP1, SFRP2, and MLH1 | led to gene re-expression | led to gene re-expression | without changes in the methylation profile | greatest knockdown | very effective in reducing protein levels | SIRT1 protein reduction | protein re-expression that corresponded with the gene reactivation |
